Source: ChEMBL document CHEMBL1201862, “PubChem BioAssay data set” (2004)
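Method: 48-hour compound exposure of cells in 96-well plates, five concentrations, linear interpolation of endpoints. GI50 is the concentration that inhibits growth by half.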 Activity calls are given as the source filed them. Rule as the data show it: active = GI50 up to about 1.1 µM and inactive = higher.

Assays:
Assay in all cases: inhibition of tumour cell growth, NCI panel, 48 h
[1] = tested on: RXF 393
[2] = tested on: UACC-257
[3] = tested on: NCI/ADR-RES
[4] = tested on: T47D
[5] = tested on: 786-0
[6] = tested on: LOX IMVI
[7] = tested on: HCT-15
[8] = tested on: PC-3
[9] = tested on: UACC-62
[10] = tested on: NCI-H460
[11] = tested on: Hs-578T
[12] = tested on: OVCAR-4
[13] = tested on: RPMI-8226
[14] = tested on: NCI-H522
[15] = tested on: IGROV-1
[16] = tested on: M14
[17] = tested on: HOP-92
[18] = tested on: NCI-H23
[19] = tested on: MDA-MB-435
[20] = tested on: UO-31
[21] = tested on: Malme-3M
[22] = tested on: SK-OV-3
[23] = tested on: CCRF-CEM
[24] = tested on: KM12
[25] = tested on: MOLT-4
[26] = tested on: ACHN
[27] = tested on: MDA-N
[28] = tested on: SF-268
[29] = tested on: U-251
[30] = tested on: MCF7
[31] = tested on: SN12C
[32] = tested on: SK-MEL-5
[33] = tested on: SK-MEL-2
[34] = tested on: HL-60
[35] = tested on: HCC 2998
[36] = tested on: OVCAR-8
[37] = tested on: NCI-H226
[38] = tested on: SR
[39] = tested on: HOP-62
[40] = tested on: DU-145
[41] = tested on: A498
[42] = tested on: SK-MEL-28
[43] = tested on: A549
[44] = tested on: OVCAR-3
[45] = tested on: HT-29
[46] = tested on: SNB-19
[47] = tested on: COLO 205
[48] = tested on: BT-549
[49] = tested on: SF-539
[50] = tested on: SF-295
[51] = tested on: TK-10
[52] = tested on: CAKI-1
[53] = tested on: MDA-MB-231
[54] = tested on: OVCAR-5
[55] = tested on: SNB-75
[56] = tested on: K562
[57] = tested on: HCT-116
[58] = tested on: SW-620
[59] = tested on: EKVX

O=[N+]([O-])c1ccc(CSc2c3ccccc3nc3ccccc23)cc1
GI50 [1]: 5.47 µM (inactive) | GI50 [2]: 3.33 µM (inactive) | GI50 [3]: 18 µM (inactive) | GI50 [4]: 1.85 µM (inactive) | GI50 [5]: 1.93 µM (inactive) | GI50 [6]: 2.93 µM (inactive) | GI50 [7]: 3.91 µM | GI50 [8]: 7.43 µM (inactive) | GI50 [9]: 14.4 µM (inactive) | GI50 [10]: 20.6 µM (inactive) | GI50 [11]: 3.21 µM (inactive) | GI50 [12]: 15.6 µM (inactive) | GI50 [13]: 2.85 µM (inactive) | GI50 [14]: 1.9 µM (inactive) | GI50 [15]: 2.82 µM (inactive) | GI50 [16]: 4.56 µM (inactive) | GI50 [17]: 3.75 µM (inactive) | GI50 [18]: 7.05 µM (inactive) | GI50 [19]: 4.94 µM (inactive) | GI50 [20]: 5.62 µM (inactive) | GI50 [21]: 2.34 µM (inactive) | GI50 [22]: 22 µM (inactive) | GI50 [23]: 2.69 µM (inactive) | GI50 [24]: 4.62 µM (inactive) | GI50 [25]: 2.31 µM (inactive) | GI50 [26]: 3.37 µM (inactive) | GI50 [27]: 9.86 µM (inactive) | GI50 [28]: 7.64 µM (inactive) | GI50 [29]: 7.28 µM (inactive) | GI50 [30]: 2.51 µM (inactive) | GI50 [31]: 3.52 µM (inactive) | GI50 [32]: 16.7 µM (inactive) | GI50 [33]: 16.9 µM (inactive) | GI50 [34]: 2.52 µM (inactive) | GI50 [35]: 16.1 µM (inactive) | GI50 [36]: 3.33 µM (inactive) | GI50 [37]: 16.7 µM (inactive) | GI50 [38]: 3.13 µM (inactive) | GI50 [39]: 18.3 µM (inactive) | GI50 [40]: 2.3 µM (inactive) | GI50 [41]: 23.7 µM (inactive) | GI50 [42]: 4.67 µM (inactive) | GI50 [43]: 23.9 µM (inactive) | GI50 [44]: 4.53 µM (inactive) | GI50 [45]: 2.28 µM (inactive) | GI50 [46]: 15.8 µM (inactive) | GI50 [47]: 3.13 µM (inactive) | GI50 [48]: 18.8 µM (inactive) | GI50 [49]: 2.47 µM (inactive) | GI50 [50]: 21.1 µM (inactive) | GI50 [51]: 6.62 µM (inactive) | GI50 [52]: 15.4 µM (inactive) | GI50 [53]: 13.5 µM (inactive) | GI50 [54]: 15.3 µM (inactive) | GI50 [55]: 19 µM (inactive) | GI50 [56]: 5.01 µM (inactive) | GI50 [57]: 2.78 µM (inactive) | GI50 [58]: 2.88 µM (inactive) | GI50 [59]: 15.9 µM (inactive)

C[C@H]1[C@H](C)N1CC(O)Cn1ccnc1[N+](=O)[O-] (stereo partly drawn)
GI50 [1]: > 100 µM (inactive) | GI50 [2]: > 100 µM (inactive) | GI50 [3]: > 100 µM (inactive) | GI50 [4]: > 100 µM (inactive) | GI50 [5]: > 100 µM (inactive) | GI50 [6]: > 100 µM (inactive) | GI50 [7]: > 100 µM | GI50 [8]: > 100 µM (inactive) | GI50 [9]: > 100 µM (inactive) | GI50 [10]: > 100 µM (inactive) | GI50 [11]: > 100 µM (inactive) | GI50 [12]: > 100 µM (inactive) | GI50 [13]: > 100 µM (inactive) | GI50 [14]: > 100 µM (inactive) | GI50 [15]: > 100 µM (inactive) | GI50 [16]: > 100 µM (inactive) | GI50 [17]: 1 µM (active) | GI50 [18]: > 100 µM (inactive) | GI50 [19]: > 100 µM (inactive) | GI50 [20]: > 100 µM (inactive) | GI50 [21]: > 100 µM (inactive) | GI50 [22]: > 100 µM (inactive) | GI50 [23]: > 91.6 µM (inactive) | GI50 [24]: > 100 µM (inactive) | GI50 [25]: > 67.6 µM (inactive) | GI50 [26]: > 100 µM (inactive) | GI50 [27]: > 100 µM (inactive) | GI50 [28]: > 100 µM (inactive) | GI50 [29]: > 100 µM (inactive) | GI50 [30]: > 100 µM (inactive) | GI50 [31]: > 100 µM (inactive) | GI50 [32]: > 100 µM (inactive) | GI50 [33]: > 100 µM (inactive) | GI50 [34]: > 100 µM (inactive) | GI50 [35]: > 100 µM (inactive) | GI50 [36]: > 100 µM (inactive) | GI50 [37]: > 100 µM (inactive) | GI50 [38]: > 100 µM (inactive) | GI50 [39]: > 100 µM (inactive) | GI50 [40]: > 100 µM (inactive) | GI50 [41]: > 100 µM (inactive) | GI50 [42]: > 100 µM (inactive) | GI50 [43]: > 100 µM (inactive) | GI50 [44]: > 100 µM (inactive) | GI50 [45]: > 100 µM (inactive) | GI50 [46]: > 100 µM (inactive) | GI50 [47]: > 100 µM (inactive) | GI50 [48]: > 100 µM (inactive) | GI50 [49]: > 100 µM (inactive) | GI50 [50]: > 100 µM (inactive) | GI50 [51]: > 100 µM (inactive) | GI50 [52]: > 100 µM (inactive) | GI50 [53]: > 100 µM (inactive) | GI50 [54]: > 100 µM (inactive) | GI50 [55]: > 100 µM (inactive) | GI50 [56]: > 100 µM (inactive) | GI50 [57]: > 100 µM (inactive) | GI50 [58]: > 100 µM (inactive) | GI50 [59]: > 100 µM (inactive)
